From patent publication US20110237566A1, “Therapeutic Macrolide Compounds and Their Use” (MERLION PHARMACEUTICALS PTE LTD, priority 2008, published 2011)

What was measured:
[1] = tested on: A549 human alveolar epithelial cell; test: Growth inhibition (cytotoxicity), A549 assay, Cell Titer Glo; assay type: cell-based; conditions: A549, 72 h, A549 cells, 72 hour incubation
Method: (§1) The cytotoxicity of each of the MC compounds as described herein was evaluated in the following cell types: A549 human alveolar epithelial cell, PC3 human prostate carcinoma cell, COLO205 human colon adenocarcinoma cell, HEPG2 human hepatoma, OVCAR3 human ovary adenocarcinoma cell, and HL60 human acute myelocytic leukemia (AML) cell.
(§2) A549, PC3, COLO205 and HEPG2 cells were cultured in DMEM (Invitrogen Corporation) with 10% fetal bovine serum, whereas OVCAR3 and HL60 were cultured in the same medium but with 20% fetal bovine serum. For cytotoxocoty measurements the cells were seeded in 96 or 384 well tissue culture treated microtitre plates overnight. Compounds were diluted in appropriate buffers and added to the cells the next day. Following a further 72 hour incubation, cell viability was determined using Cell Titer Glo (Promega Corporation) according to the manufacturers' instructions, and the luminescence measured in Luminoskan Ascent (Thermo Fisher Scientific Inc.).

[2] = tested on: HL60 human acute myelocytic leukemia (AML) cell; test: Growth inhibition (cytotoxicity), HL60A assay, Cell Titer Glo; assay type: cell-based; conditions: HL-60, 72 h, HL60 cells, 72 hour incubation
Method: as §1, §2

[3] = tested on: COLO205 human colon adenocarcinoma cell; test: Growth inhibition (cytotoxicity), COLO205 assay, Cell Titer Glo; assay type: cell-based; conditions: COLO 205, 72 h, COLO205 cells, 72 hour incubation
Method: as §1, §2

[4] = tested on: HEPG2 human hepatoma; test: Growth inhibition (cytotoxicity), HEPG2A assay, Cell Titer Glo; assay type: cell-based; conditions: HEPG2 cells, 72 hour incubation
Method: as §1, §2

[5] = tested on: OVCAR3 human ovary adenocarcinoma cell; test: Growth inhibition (cytotoxicity), OVCAR3 assay, Cell Titer Glo; assay type: cell-based; conditions: OVCAR3 cells, 72 hour incubation
Method: as §1, §2

[6] = tested on: PC3 human prostate carcinoma cell; test: Growth inhibition (cytotoxicity), PC3A assay, Cell Titer Glo; assay type: cell-based; conditions: PC-3, 72 h, PC3 cells, 72 hour incubation
Method: as §1, §2

[7] = Microsomal stability assay; assay type: in vitro ADME; conditions: human, human liver microsomes, pH 7.4, human liver microsomes, 50 μm, 37° C.; read-out: T1/2, 50 μm microsomal stability assay
Method: 50 μL test sample (50 mM), 25 μL human liver microsomes (20 mg/ml, BD Gentest, catalog no. 452161), 281 μL potassium phosphate buffer (100 mM, pH 7.4), 5 μL NaDPH regenerating system, solution B (BD Biosciences, catalog no. 451200), and 114 μL of water were pre-incubated for 5 min at 37° C. The reaction was initiated by the addition of 25 μL NaDPH regenerating system, solution A (BD Biosciences, catalog no. 451220). After an incubation period of 0, 15, 30, and 60 min at 37° C., 100 μL of the reaction mixture was transferred to an eppendorf tube, followed by addition of 100 μL chilled acetonitrile to quench the reaction. The sample was then centrifuged at 14,000 rpm for 5 min. The supernatant was submitted for LCMS analysis.

Row | SMILES | IC50 [1] [nM] | IC50 [2] [nM] | IC50 [3] [nM] | IC50 ([4]; Homo sapiens, HepG2, 72 h) [nM] | IC50 ([5]; Homo sapiens, OVCAR-3, 72 h) [nM] | IC50 [6] [nM] | IC50 [4] [nM] | IC50 [5] [nM] | half-life at 50 μM [7] [min]
1 | CC[C@H](OC)[C@@H](C)[C@H]1O[C@@H]1C(NCc1ccncc1)C(C)(O)/C=C/C=C(\C)C1OC(=O)C[C@H](O)CC[C@@](C)(O)[C@@H](OC(C)=O)/C=C/[C@@H]1C (single isomer, unassigned) [MC-007b] | ≤ 1000 | ≤ 100 |  |  |  |  |  |  | 
2 | CC[C@H](OC)[C@@H](C)[C@H]1O[C@@H]1C(NCc1ccc(Cl)c(Cl)c1)C(C)(O)/C=C/C=C(\C)C1OC(=O)C[C@H](O)CC[C@@](C)(O)[C@@H](OC(C)=O)/C=C/[C@@H]1C (stereo partly drawn) [MC-059] |  |  | ≤ 100 | ≤ 100 | ≤ 100 | ≤ 100 |  |  | 
3 | CC[C@H](OC)[C@@H](C)[C@H]1O[C@@H]1C(NCc1ccc(Cl)cc1)C(C)(O)/C=C/C=C(\C)C1OC(=O)C[C@H](O)CC[C@@](C)(O)[C@@H](OC(C)=O)/C=C/[C@@H]1C (single isomer, unassigned) [MC-016a] |  | ≤ 100 | ≤ 100 | ≤ 100 | ≤ 100 | ≤ 100 |  |  | 
4 | CC[C@H](OC)[C@@H](C)[C@H]1O[C@@H]1C(NCc1ccc(OC)cc1)C(C)(O)/C=C/C=C(\C)C1OC(=O)C[C@H](O)CC[C@@](C)(O)[C@@H](OC(C)=O)/C=C/[C@@H]1C (stereo partly drawn) [MC-005] |  |  |  | ≤ 100 | ≤ 100 |  | 57 | 61 | 20
5 | CC[C@H](OC)[C@@H](C)[C@H]1O[C@@H]1C(NCc1ccncc1)C(C)(O)/C=C/C=C(\C)C1OC(=O)C[C@H](O)CC[C@@](C)(O)[C@@H](OC(C)=O)/C=C/[C@@H]1C (stereo partly drawn) [MC-007c] | ≤ 1000 | ≤ 100 | ≤ 100 |  |  |  |  |  | 
6 | CC[C@H](OC)[C@@H](C)[C@H]1O[C@@H]1C(NCc1ccc(F)cc1)C(C)(O)/C=C/C=C(\C)C1OC(=O)C[C@H](O)CC[C@@](C)(O)[C@@H](OC(C)=O)/C=C/[C@@H]1C.O=CO (single isomer, unassigned) [MC-006c] |  | ≤ 100 | ≤ 100 |  | ≤ 100 | ≤ 100 |  |  | > 30
